# Measurements published in patent US11746109B2, “Crystalline forms of 2-[(2S)-1-azabicyclo[2.2.2]oct-2-yl]-6-(3-methyl-1H-pyrazol-4-yl)thieno[3,2-d]pyrimidin-4(3H)-one hemihydrate” (TAKEDA PHARMACEUTICAL COMPANY LIMITED, priority 2016, dated 2023).
# Legend:
# Assay type in all cases: physicochemical
# [1] = Hygroscopicity of crystalline forms
# [2] = Chemical and optical stability of crystalline forms on storage
# [3] = Estimated solubility at 55° C. in recrystallization solvents; conditions: organic solvent or mixture, thermodynamic from solid
# Experimental: Recrystallization of Compound 1 Crystalline Form A was investigated in various solvent conditions. […] One of water, heptane or IPE was added as an anti-solvent to maintain the saturation state. Recrystallization in heptane yielded a sufficient amount of solids for analysis after gradual cooling. […] Crystals obtained from THF, trifluoroethanol, THF/heptane, chloroform/heptane, chloroform/IPE and trifluoroethanol/IPE were characterized as solvates by XRPD and TGA/DSC analysis. Crystals obtained from all other solvents were confirmed to be Compound 1 Crystalline Form A based on XRPD analysis.
# [4] = Solubility in water/DMSO at 60° C.; conditions: for solubility / solubility at 24 h: Water/DMSO at 60° C.; for solubility: hemihydrate; for solubility at 24 h: water/DMSO, 60 °C, organic solvent or mixture, thermodynamic from solid
# Experimental: A solution of DMSO/water with known water content was added to a glass vial and heated to 60° C. Crystals of Compound 1 Crystalline Form I or Compound 1 Crystalline Form A were added to the vial until a suspension was obtained. The suspension was stirred via magnetic stirring and incubated for 24 hrs at 60° C. After incubation, the suspension was filtered at 60° C. 10 μL of the filtrate was sampled and diluted with 990 μL of acetonitrile/water (1/1, v/v). Sample concentration of Compound 1 was determined by HPLC. […] The experimental solubility results are summarized below in Tables 5 and 6.
# [5] = Solubility in 200 mM phosphate buffer (pH 6.8); conditions: for solubility at 20 h: phosphate buffer, pH 6.8, aqueous buffer, thermodynamic from solid; for solubility: 20 hrs, hemihydrate
# Experimental: About 2 mg of Compound 1 Crystalline Form A made in example 2 or Compound 1 Crystalline Form I made in example 3-2 and 2 mL of 200 mM phosphate buffer (pH 6.8) were added into a glass test tube. The test tube was shaken vigorously and incubated at 10° C., 20° C., 30° C. or 40° C. for 20 hrs. After the incubation, the suspension was centrifuged and the supernatant was filtered through a 0.22 μm pore membrane filter. The filtrate solutions were diluted 2-fold with 50 mM sodium perchlorate buffer (pH 2.5)/acetonitrile (1/1, v/v). Concentration was determined by HPLC.
# [6] = 60° C./75% relative humidity (open) for at least eight weeks
# [7] = 80° C. (closed) for at least eight weeks
structure (smiles),measurement,setting,value
"Cc1[nH]ncc1-c1cc2nc([C@@H]3CC4CCN3CC4)[nH]c(=O)c2s1 [Compound 1 Crystalline Form A, 2-[(2S)-1-azabicyclo[2.2.2]oct-2-yl]-6-(3-methyl-1H-pyrazol-4-yl)thieno[3,2-d]pyrimidin-4(3H)-one hemihydrate]",Hygroscopicity,[1]; at 25° C.,not hygroscopic
same,Hygroscopicity,[1]; at 40° C.,not hygroscopic
same,Chemical and optical stability,[2]; [6],chemically and optically stable
same,Chemical and optical stability,[2]; [7],chemically and optically stable
same,solubility,[3]; solvent Acetone,< 2 mg/mL
same,solubility,[3]; solvent Acetonitrile,< 2 mg/mL
same,solubility,[3]; solvent Chloroform,2.8 mg/mL
same,solubility,[3]; solvent Ethanol,10.5 mg/mL
same,solubility,[3]; solvent Ethyl acetate,< 2 mg/mL
same,solubility,[3]; solvent Formamide,10 mg/mL
same,solubility,[3]; solvent IPA,6.7 mg/mL
same,solubility,[3]; solvent MEK,2.9 mg/mL
same,solubility,[3]; solvent Methanol,33.3 mg/mL
same,solubility,[3]; solvent THF,9.1 mg/mL
same,solubility,[3]; solvent Toluene,< 2 mg/mL
same,solubility,[3]; solvent Trifluoroethanol,> 100 mg/mL
same,solubility,[4]; 0 % water by volume,153.8 mg/mL
same,solubility,[4]; 6 % water by volume,73.4 mg/mL
same,solubility at 24 h,[4]; 8.5 % water by volume,51 mg/mL
same,solubility at 24 h,[4]; 8.7 % water by volume,44 mg/mL
same,solubility at 24 h,[4]; 9.8 % water by volume,38.5 mg/mL
same,solubility at 24 h,[4]; 10.7 % water by volume,32.1 mg/mL
same,solubility at 24 h,[4]; 11.3 % water by volume,28.6 mg/mL
same,solubility at 24 h,[4]; 11.8 % water by volume,25.7 mg/mL
same,solubility at 20 h,[5]; 10 °C,0.102 mg/mL
same,solubility at 20 h,[5]; 20 °C,0.104 mg/mL
same,solubility at 20 h,[5]; 30 °C,0.115 mg/mL
same,solubility at 20 h,[5]; 40 °C,0.136 mg/mL
"Cc1[nH]ncc1-c1cc2nc([C@@H]3CC4CCN3CC4)[nH]c(=O)c2s1 [Compound 1 Crystalline Form I, 2-[(2S)-1-azabicyclo[2.2.2]oct-2-yl]-6-(3-methyl-1H-pyrazol-4-yl)thieno[3,2-d]pyrimidin-4(3H)-one hemihydrate]",Hygroscopicity,[1]; at 25° C.,not hygroscopic
same,Hygroscopicity,[1]; at 40° C.,not hygroscopic
same,Chemical and optical stability,[2]; [6],chemically and optically stable
same,Chemical and optical stability,[2]; [7],chemically and optically stable
same,Solubility in water/DMSO relative to Compound 1 Crystalline Form A,[4]; at 60° C. (FIG. 7),lower
same,solubility at 24 h,[4]; 0 % water by volume,134 mg/mL
same,solubility at 24 h,[4]; 3 % water by volume,108 mg/mL
same,solubility at 24 h,[4]; 4 % water by volume,92.2 mg/mL
same,solubility at 24 h,[4]; 4.5 % water by volume,74.8 mg/mL
same,solubility at 24 h,[4]; 6 % water by volume,65.8 mg/mL
same,solubility at 24 h,[4]; 8 % water by volume,34.8 mg/mL
same,solubility,[5]; 10 °C,0.063 mg/mL
same,solubility,[5]; 20 °C,0.071 mg/mL
same,solubility,[5]; 30 °C,0.08 mg/mL
same,solubility,[5]; 40 °C,0.099 mg/mL
